We go through 13 compounds from US8697687B2, “Treating diseases mediated by blockade of the epithelial sodium channel with pyrazine-2-carboxamide derivatives” (Novartis AG, priority 2007, dated 2014).

This experiment has as its target T1, epithelial sodium channel (ENaC) (Homo sapiens, UniProt P37088+P51168+P51170).
T1 construct: host or cells: primary Human Bronchial Epithelial cells (HBECs), air-liquid interface culture
T1 sequence (P37088 1-669): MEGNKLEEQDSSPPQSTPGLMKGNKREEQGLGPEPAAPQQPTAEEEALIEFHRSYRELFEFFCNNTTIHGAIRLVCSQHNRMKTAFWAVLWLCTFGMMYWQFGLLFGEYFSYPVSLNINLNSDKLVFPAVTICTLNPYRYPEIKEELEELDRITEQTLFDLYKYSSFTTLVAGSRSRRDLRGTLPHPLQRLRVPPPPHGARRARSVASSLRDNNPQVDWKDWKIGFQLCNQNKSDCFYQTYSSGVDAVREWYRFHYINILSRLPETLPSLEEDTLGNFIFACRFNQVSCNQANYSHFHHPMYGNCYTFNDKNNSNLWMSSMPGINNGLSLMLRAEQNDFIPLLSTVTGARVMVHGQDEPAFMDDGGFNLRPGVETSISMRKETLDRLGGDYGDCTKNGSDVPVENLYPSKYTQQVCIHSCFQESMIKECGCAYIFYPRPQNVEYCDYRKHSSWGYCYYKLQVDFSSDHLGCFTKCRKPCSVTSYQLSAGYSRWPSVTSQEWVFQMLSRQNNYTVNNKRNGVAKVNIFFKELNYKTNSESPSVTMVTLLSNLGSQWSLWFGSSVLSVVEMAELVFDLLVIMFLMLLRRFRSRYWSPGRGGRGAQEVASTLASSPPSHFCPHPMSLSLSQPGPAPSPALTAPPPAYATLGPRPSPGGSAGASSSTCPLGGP
T1 sequence (P51168 1-640): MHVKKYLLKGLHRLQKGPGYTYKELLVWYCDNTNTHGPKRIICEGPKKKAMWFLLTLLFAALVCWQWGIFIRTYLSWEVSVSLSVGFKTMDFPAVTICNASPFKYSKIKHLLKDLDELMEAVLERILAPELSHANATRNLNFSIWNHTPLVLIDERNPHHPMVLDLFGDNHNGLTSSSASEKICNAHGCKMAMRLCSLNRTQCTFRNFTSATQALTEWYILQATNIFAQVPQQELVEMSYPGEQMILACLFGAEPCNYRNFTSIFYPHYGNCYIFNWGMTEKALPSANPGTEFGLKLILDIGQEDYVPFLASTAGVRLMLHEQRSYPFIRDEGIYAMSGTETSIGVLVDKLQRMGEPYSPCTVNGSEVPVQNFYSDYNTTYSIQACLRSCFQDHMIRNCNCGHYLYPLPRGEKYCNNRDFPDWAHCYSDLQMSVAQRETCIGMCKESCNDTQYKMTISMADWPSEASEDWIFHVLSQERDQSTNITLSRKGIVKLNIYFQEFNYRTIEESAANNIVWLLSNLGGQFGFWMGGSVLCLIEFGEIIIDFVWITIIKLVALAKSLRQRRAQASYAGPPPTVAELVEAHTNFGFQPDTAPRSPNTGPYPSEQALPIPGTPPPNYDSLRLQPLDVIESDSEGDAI
T1 sequence (P51170 1-649): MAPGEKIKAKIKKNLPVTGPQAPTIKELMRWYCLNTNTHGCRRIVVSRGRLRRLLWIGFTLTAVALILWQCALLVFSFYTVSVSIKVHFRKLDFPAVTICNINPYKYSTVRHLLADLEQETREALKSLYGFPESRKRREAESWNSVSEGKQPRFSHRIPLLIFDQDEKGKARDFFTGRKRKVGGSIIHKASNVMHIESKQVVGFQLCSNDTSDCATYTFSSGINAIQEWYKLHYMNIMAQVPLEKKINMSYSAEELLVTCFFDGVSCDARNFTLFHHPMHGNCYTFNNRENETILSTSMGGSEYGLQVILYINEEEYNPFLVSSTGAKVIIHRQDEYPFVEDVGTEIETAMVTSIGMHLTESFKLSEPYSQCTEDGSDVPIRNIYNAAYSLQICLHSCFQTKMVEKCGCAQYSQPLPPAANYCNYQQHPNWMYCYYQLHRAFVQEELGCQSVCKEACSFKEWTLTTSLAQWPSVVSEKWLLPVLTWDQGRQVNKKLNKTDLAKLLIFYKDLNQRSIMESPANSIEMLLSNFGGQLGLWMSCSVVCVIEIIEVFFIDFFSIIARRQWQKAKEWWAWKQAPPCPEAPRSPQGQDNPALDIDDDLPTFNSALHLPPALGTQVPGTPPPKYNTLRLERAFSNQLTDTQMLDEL
In words: Short circuit current (ISC) measurements in Human Bronchial Epithelial cells, inhibition of amiloride-sensitive ISC. Format: cell-based. The method, then:
Compounds of formula (I) and their pharmaceutically acceptable salts, hereinafter referred to alternatively as “agents of the invention”, are useful as pharmaceuticals. In particular, the compounds have good ENaC blocker activity and may be tested in the following assays.
Human Bronchial Epithelial cells (HBECs) (Cambrex) were cultured under air-liquid interface conditions to provide a well differentiated mucociliary phenotype.
HBECs were cultured using a modification of the method described by Gray and colleagues (Gray et al., 1996). Cells were seeded in plastic T-162 flasks and were grown in bronchial epithelial cell growth medium (BEGM; Cambrex) supplemented with bovine pituitary extract (52 μg/mL), hydrocortisone (0.5 μg/mL), human recombinant epidermal growth factor (0.5 ng/mL), epinephrine (0.5 μg/mL), transferrin (10 μg/mL), insulin (5 μg/mL), retinoic acid (0.1 μg/mL), triiodothyronine ([…]), gentamycin (50 μg/mL) and amphotericin B (50 ng/mL). Medium was changed every 48 hours until cells were 90% confluent. Cells were then passaged and seeded (8.25×10^5 cells/insert) on polycarbonate Snapwell inserts (Costar) in differentiation media containing 50% DMEM in BEGM with the same supplements as above but without triiodothyronine and a final retinoic acid concentration of 50 nM (all-trans retinoic acid). Cells were maintained submerged for the first 7 days in culture, after which time they were exposed to an apical air interface for the remainder of the culture period. At this time, media was changed to DMEM:F12 media containing 2% v/v Ultroser G for the remainder of culture. Amphotericin B was removed from all media 3 feeds prior to use in the Using Chambers. Cells were used between days 7 and 21 after establishment of the apical-air interface. At all stages of culture, cells were maintained at 37° C. in 5% CO2 in an air incubator.
Short Circuit Current (ISC) Measurements
Snapwell inserts were mounted in Vertical Diffusion Chambers (Costar) and were bathed with continuously gassed Ringer solution (5% CO2 in O2; pH 7.4) maintained at 37° C. containing (in mM): 120 NaCl, 25 NaHCO3, 3.3 KH2PO4, 0.8 K2HPO4, 1.2 CaCl2, 1.2 MgCl2, and 10 glucose. The solution osmolarity was between 280 and 300 mOsmol/kg H2O for all physiological salt solutions used. Cells were voltage clamped to 0 mV (model EVC4000; WPI). RT was measured by applying a 1- or 2-mV pulse at 30-s intervals and calculating RT by Ohm's law. Data were recorded using a PowerLab workstation (ADInstruments).
Test compounds were prepared as a 10 mM stock solution in DMSO (95%). Serial 3-fold dilutions were freshly prepared in an appropriate vehicle (distilled H2O or Ringers solution). The initial concentration was added to the apical chamber as a 1000× concentrate in 5 μL, resulting in a final 1× concentration the 5 mL volume of the Ussing chamber. Subsequent additions of compound were added in a 3.3 μL volume of the 1000× serially diluted stock solution. At the completion of the concentration-response experiment, amiloride (10 μM) was added into the apical chamber to enable the total amiloride-sensitive current to be measured. An amiloride control IC50 was established at the start of each experiment.
Results are expressed as the mean % inhibition of the amiloride-sensitive ISC. Concentration-response curves were plotted and IC50 values generated using GraphPad Prism 3.02. Cell inserts were typically run in duplicate and the IC50 calculated on the mean % inhibition data.

The mark [1] stands for this setting: inhibition of the amiloride-sensitive ISC, Human Bronchial Epithelial cells (HBECs) at air-liquid interface, compound added to apical chamber, read-out: IC50.

The term IC50 denotes the concentration needed to halve the response being measured.

Where two headings read alike, the source gives them in different places.

As for `CC(C)(C)c1ccc(OCCn2ccc3c(C(=O)N4CCC5(CC4)CN/C(=N\C(=O)c4nc(Cl)c(N)nc4N)N5)cccc32)cc1` [Example 86, 3,5-Diamino-6-chloro-pyrazine-2-carboxylic acid [8-{1-[2-(4-tert-butyl-phenoxy)-ethyl]-1H-indole-4-carbonyl}-1,3,8-triaza-spiro[4.5]dec-(2E)-ylidene]-amide], the IC50 is 8 nM.

As to `CC(C)(C)OC(=O)c1ccc(C(=O)N2CCC3(CC2)CN/C(=N\C(=O)c2nc(Cl)c(N)nc2N)N3)cc1` [Example 76, 4-{2-[(E)-3,5-Diamino-6-chloro-pyrazine-2-carbonylimino]-1,3,8-triaza-spiro[4.5]decane-8-carbonyl}-benzoic acid tert-butyl ester], under setting [1], the half-maximal inhibitory concentration (IC50) came out at 12 nM.

On to `CC(c1ccccc1)N1CCC2(CC1)CN/C(=N\C(=O)c1nc(Cl)c(N)nc1N)N2` (stereo not shown) [Example 246, 3,5-Diamino-6-chloro-pyrazine-2-carboxylic acid [8-(1-phenyl-ethyl)-1,3,8-triaza-spiro[4.5]dec-(2E)-ylidene]-amide], for which the IC50 under setting [1] came out at 25 nM.

For `Cc1[nH]c2ccc(CC(=O)N3CCC4(CC3)CN/C(=N\C(=O)c3nc(Cl)c(N)nc3N)N4)cc2c1C` [Example 48, 3,5-Diamino-6-chloro-pyrazine-2-carboxylic acid [8-[2-(2,3-dimethyl-1H-indol-5-yl)-acetyl]-1,3,8-triaza-spiro[4.5]dec-(2E)-ylidene]-amide], the IC50 under setting [1] is 16.5 nM.

With `CC(C)COC1CCN(S(=O)(=O)c2cccc(C(=O)N3CCC4(CC3)CN/C(=N\C(=O)c3nc(Cl)c(N)nc3N)N4)c2)CC1` [Example 126, 3,5-Diamino-6-chloro-pyrazine-2-carboxylic acid [8-[3-(4-isobutoxy-piperidine-1-sulfonyl)-benzoyl]-1,3,8-triaza-spiro[4.5]dec-(2E)-ylidene]-amide], the IC50 under setting [1] turned out to be 25 nM.

For `CC(C)NC(=O)Nc1ccc(C(=O)N2CCC3(CC2)CN/C(=N\C(=O)c2nc(Cl)c(N)nc2N)N3)cc1` [Example 64, 3,5-Diamino-6-chloro-pyrazine-2-carboxylic acid [8-[4-(3-isopropyl-ureido)-benzoyl]-1,3,8-triaza-spiro[4.5]dec-(2E)-ylidene]-amide], the IC50 under setting [1] was determined as 25.5 nM.

Regarding `Nc1nc(N)c(C(=O)/N=C2\NCC3(CCN(C(=O)NCCc4cccc(OCc5ccccc5)c4)CC3)N2)nc1Cl` [Example 220, 2-[(E)-3,5-Diamino-6-chloro-pyrazine-2-carbonylimino]-1,3,8-triaza-spiro[4.5]decane-8-carboxylic acid [2-(3-benzyloxy-phenyl)-ethyl]-amide], the IC50 under setting [1] is 8.5 nM.

As for `CC(=O)N[C@@H](Cc1ccc(OC(C)C)cc1)C(=O)N1CCC2(CC1)CN/C(=N\C(=O)c1nc(Cl)c(N)nc1N)N2` [Example 185, 3,5-Diamino-6-chloro-pyrazine-2-carboxylic acid [8-[(S)-2-acetylamino-3-(4-isopropoxy-phenyl)-propionyl]-1,3,8-triaza-spiro[4.5]dec-(2E)-ylidene]-amide], under setting [1], the IC50 amounted to 62 nM.

With `CC(C)NC(=O)Nc1ccc(C(=O)N2CCC3(CC2)CN/C(=N\C(=O)c2nc(Cl)c(N)nc2N)N3)cn1` [Example 65, 3,5-Diamino-6-chloro-pyrazine-2-carboxylic acid [8-[6-(3-isopropyl-ureido)-pyridine-3-carbonyl]-1,3,8-triaza-spiro[4.5]dec-(2E)-ylidene]-amide], the IC50 under setting [1] is 39.5 nM.

As for `Nc1nc(N)c(C(=O)/N=C2/NC[C@@H](CCCc3ccc(OC[C@@H](O)CO)cc3)N2)nc1Cl` [Example 19, 3,5-Diamino-6-chloro-pyrazine-2-carboxylic acid [(R)-4-{3-[4-((S)-2,3-dihydroxy-propoxy)-phenyl]-propyl}-imidazolidin-(2Z)-ylidene]-amide], the IC50 under setting [1] came out at 18 nM.

As to `CCOC(=O)C1CCCN(S(=O)(=O)c2cccc(C(=O)N3CCC4(CC3)CN/C(=N\C(=O)c3nc(Cl)c(N)nc3N)N4)c2)C1` (stereo not shown) [Example 128, 1-(3-{2-[(E)-3,5-Diamino-6-chloro-pyrazine-2-carbonylimino]-1,3,8-triaza-spiro[4.5]decane-8-carbonyl}-benzenesulfonyl)-piperidine-3-carboxylic acid ethyl ester], under setting [1], the IC50 was 11.5 nM.

Take `Nc1nc(N)c(C(=O)/N=C2\NCC3(CCN(S(=O)(=O)Cc4ccccc4)CC3)N2)nc1Cl` [Example 232, 3,5-Diamino-6-chloro-pyrazine-2-carboxylic acid [8-phenylmethanesulfonyl-1,3,8-triaza-spiro[4.5]dec-(2E)-ylidene]-amide]: under setting [1], the IC50 worked out at 54 nM.

Take `Nc1nc(N)c(C(=O)/N=C2\NCC3(CCN(C(=O)NCCCc4ccccn4)CC3)N2)nc1Cl` [Example 228, 2-[(E)-3,5-Diamino-6-chloro-pyrazine-2-carbonylimino]-1,3,8-triaza-spiro[4.5]decane-8-carboxylic acid (3-pyridin-2-yl-propyl)-amide]: the IC50 under setting [1] stood at 93.5 nM.
